Measured values reported in patent publication US20240423954A1, “Chlorthalidone Compositions And Methods” (Nivagen Pharmaceuticals, Inc., priority 2020, published 2024).

Test: Initial experiments on chlorthalidone API in solution
Type: physicochemical
Conditions: without excipients; would agglomerate and cake
Excerpt: Accordingly, for stabilizing the chlorthalidone in a stabilized suspension, the inventors contemplated combining the chlorthalidone with select excipients. These excipients include at least a solubilizing and/or a wetting agent, at least one suspending agent, at least one viscosity increasing agent or at least one anti-caking agent, and water. The suspension may also further include an anti-foaming agent, at least one antimicrobial, and at least one sweetening agent.

stability of the API in solution: not stable in solution
Structure (SMILES): NS(=O)(=O)c1cc(C2(O)NC(=O)c3ccccc32)ccc1Cl (stereo not shown) [chlorthalidone, Chlorthalidone]
